Here are results for 13 compounds from patent US12083101B2, “Biaryl derivatives as YAP/TAZ-TEAD protein-protein interaction inhibitors” (Novartis AG, priority 2020, dated 2024).

Assay [1] deals with NCI-H2052 Tet-On shYAP_2371 pLenti6 MCAT_Luc cells (YAP-dependent transcription). The assay is described as follows: YAP reporter gene activity assay (MCAT-luciferase), NCI-H2052. The class given is cell-based. As to conditions: 24 hours incubation, BrightGlo luminescence. The gist of the method:
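NCI-H2052 cells carrying an MCAT-luciferase reporter and a tetracycline-inducible YAP 3′UTR shRNA were treated with eleven 2-fold compound dilutions (0.1% DMSO) for 24 h at 37 °C. BrightGlo luminescence was background-subtracted and expressed as % of DMSO control. IC50 came from a four-parameter fit; MKN-45/Ubc-luc cells served as the specificity counterscreen.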

The test system of assay [2] is MKN-45/Ubc-luc cells. The assay is described as follows: Reporter gene specificity control (Ubc-luciferase), MKN-45. As to conditions: for IC50: Homo sapiens, MKN-45, 24 h, read-out: Reporter gene assay MKN-45 IC50 [μM], MKN-45/Ubc-luc cells (YAP deleted, specificity control), 24 hours incubation; for pIC50: read-out: Reporter gene assay MKN-45 IC50, MKN-45/Ubc-luc cells (YAP deleted, specificity control), 24 hours incubation.

Assay [3] concerns NCI-H2052 Tet-On shYAP_2371 pLenti6 MCAT_Luc cells. The assay is described as follows: Proliferation assay (resazurin), NCI-H2052. As to conditions: 72 hours incubation. The assay is classed as cell-based. The gist of the method:
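The NCI-H2052 line carries a Tet-inducible shRNA against the YAP1 3′UTR and an MCAT luciferase reporter. The day after seeding, it received eleven 2-fold compound dilutions at 0.1% DMSO, and viability was read by resazurin fluorescence.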
In general terms: The colour change of resazurin is a common sign of viable cells or microbes.

For assay [4], the system named is MKN-45/Ubc-luc cells. The assay is described as follows: Proliferation assay (resazurin), MKN-45. The class given is cell-based. As to conditions: 72 hours incubation.
Assay [5] has as its target Avi-humanTEAD4 217-434 / Cy5 labeled humanYAP 60-100 (Homo sapiens (Human), UniProt Q15561). Nature of the assay: TR-FRET YAP-TEAD4 in-vitro biochemical assay. As to conditions: 1 nM Avi-humanTEAD4 217-434, 20 nM Cy5-humanYAP 60-100, 1 h room temperature. The assay is classed as binding. (In general: In TR-FRET formats the signal depends on donor and acceptor labels being close together.)

Molecules are shown by their SMILES. pIC50: −log10 of the molar value. Read-outs that look alike come from different tables or passages of the source. Bounds are passed on as bounds.

Chain of Avi-humanTEAD4 217-434 / Cy5 labeled humanYAP 60-100 (Q15561 217-434): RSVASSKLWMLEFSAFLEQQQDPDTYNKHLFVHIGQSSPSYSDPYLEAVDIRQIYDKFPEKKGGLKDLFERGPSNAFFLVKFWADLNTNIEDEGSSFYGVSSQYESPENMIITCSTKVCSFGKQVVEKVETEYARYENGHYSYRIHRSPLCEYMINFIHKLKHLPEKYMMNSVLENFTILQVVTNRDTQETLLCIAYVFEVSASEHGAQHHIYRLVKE

In the case of `COc1ncc(C(N)=O)c(-c2c(Cl)ccc3c2C[C@@](CN)(c2ccccc2)O3)c1F` (atropisomer, axis not shown) [Example 18, 4-((2S,4S)-2-(Aminomethyl)-5-chloro-2-phenyl-2,3-dihydrobenzofuran-4-yl)-5-fluoro-6-methoxynicotinamide], the pIC50 (usually the IC50 on a negative log10 scale, so that one unit is a factor of ten) in assay [1] (Homo sapiens, NCI-H2052, 24 h) was 6.42; in assay [5] it was 8.40. In assay [2], the IC50 stood at 19.5 µM. The GI50 (usually the concentration that inhibits growth by half) in assay [3] (Homo sapiens, NCI-H2052, 72 h) is 553 nM; in assay [4] (Homo sapiens) it was more than 12500 nM.
For `CNC(=O)c1ccc(OC)c(F)c1-c1c(C#N)ccc2c1C[C@@](CN[C@H]1CC[C@](C)(O)CC1)(c1ccccc1)O2` (atropisomer, axis not shown) [Example 129, 2-((2S,4R)-5-Cyano-2-((((trans)-4-hydroxy-4-methylcyclohexyl)amino)methyl)-2-phenyl-2,3-dihydrobenzofuran-4-yl)-3-fluoro-4-methoxy-N-methylbenzamide] the same measures were 6.21, 7.60, more than 10 µM, 892 nM and more than 10000 nM.
`NC(=O)c1ccc(OCCO)c(F)c1-c1c(Cl)c(F)cc2c1C[C@@](CN[C@H]1C[C@@H](C(F)F)C1)(c1ccccc1)O2` (relative stereo) [Example 140a, 2-((2S,4S)-5-Chloro-2-((((cis)-3-(difluoromethyl)cyclobutyl)amino)methyl)-6-fluoro-2-phenyl-2,3-dihydrobenzofuran-4-yl)-3-fluoro-4-(2-hydroxyethoxy)benzamide]: the pIC50 is 7.64 in assay [1], less than 5.00 in assay [2] and 8.40 in assay [5]. Further, the GI50 in assay [3] is 28 nM; in assay [4], more than 10000 nM.
Regarding `COCCOc1ccc(C(N)=O)c(-c2c(Cl)c(F)cc3c2[C@H](C)[C@@](CN[C@H]2CC[C@](C)(O)CC2)(c2ccccn2)O3)c1F` (atropisomer, axis not shown) [Example 126, 2-((2R,3S,4S)-5-Chloro-6-fluoro-2-((((trans)-4-hydroxy-4-methylcyclohexyl)amino)methyl)-3-methyl-2-(pyridin-2-yl)-2,3-dihydrobenzofuran-4-yl)-3-fluoro-4-(2-methoxyethoxy)benzamide], the pIC50 was 7.35 in assay [1] (Homo sapiens, NCI-H2052, 24 h) and 8.70 in assay [5]. Further, the IC50 in assay [2] is more than 10 µM. Further, the GI50 in assay [3] (Homo sapiens, NCI-H2052, 72 h) was 76 nM; in assay [4] (Homo sapiens), more than 10000 nM.
Regarding `CN(C)C(=O)C1CCC(NC[C@@]2(c3ccccc3)Cc3c(cc(F)c(Cl)c3-c3c(C(N)=O)ccc(OC(F)F)c3F)O2)CC1` (single isomer, unassigned) [Example 58b], the pIC50 in assay [1] was 6.98; in assay [2] it was less than 5.00; in assay [5] it was 8.22. In addition, the GI50 was 167 nM in assay [3] and more than 10000 nM in assay [4].
On to `NC(=O)c1ccc(OC(F)F)c(F)c1-c1c(Cl)c(F)cc2c1C[C@@](CN[C@H]1CC[C@H](O)CC1)(c1ccccc1)O2` (atropisomer, axis not shown) [Example 72, 2-((2S,4S)-5-chloro-6-fluoro-2-(((trans-4-hydroxycyclohexyl)amino)methyl)-2-phenyl-2,3-dihydrobenzofuran-4-yl)-4-(difluoromethoxy)-3-fluorobenzamide], for which the pIC50 in assay [1] (Homo sapiens, NCI-H2052, 24 h) is 7.41; in assay [5] it was 8.70. For the same compound, the IC50 in assay [2] stood at 9.8 µM. In addition, the GI50 is 72 nM in assay [3] (Homo sapiens, NCI-H2052, 72 h) and more than 10000 nM in assay [4] (Homo sapiens).
Regarding `NC[C@@]1(c2ccccc2)Cc2c(cc(F)c(Cl)c2-c2cc(SC(F)(F)CO)ccc2C(N)=O)O1` (atropisomer, axis not shown) [Example 39, 2-((2S,4R)-2-(aminomethyl)-5-chloro-6-fluoro-2-phenyl-2,3-dihydrobenzofuran-4-yl)-4-((1,1-difluoro-2-hydroxyethyl)thio)benzamide], the negative-log IC50 (pIC50) in assay [1] (Homo sapiens, NCI-H2052, 24 h) is 5.67; in assay [5], 6.99. Further, the IC50 in assay [2] was more than 10 µM. In addition, the GI50 in assay [3] (Homo sapiens, NCI-H2052, 72 h) is 2830 nM; in assay [4] (Homo sapiens), more than 10000 nM.
As to `C[C@H](O)COc1ccc(C(N)=O)c(-c2c(Cl)c(F)cc3c2[C@H](C)[C@](c2ccccc2)(C2CCCN2)O3)c1F` (stereo partly drawn) [Example 167, 2-((2S,3S,4S)-5-chloro-6-fluoro-3-methyl-2-phenyl-2-(pyrrolidin-2-yl)-2,3-dihydrobenzofuran-4-yl)-3-fluoro-4-((S)-2-hydroxypropoxy)benzamide], the pIC50 is 7.24 in assay [1] (Homo sapiens, NCI-H2052, 24 h) and 8.00 in assay [5]. The IC50 in assay [2] is more than 10 µM. The GI50 is 82 nM in assay [3] (Homo sapiens, NCI-H2052, 72 h) and more than 10000 nM in assay [4] (Homo sapiens).
For `C[C@@H](O)COc1ccc(C(N)=O)c(-c2c(Cl)ccc3c2C[C@@](CN)(c2ccccc2)O3)c1F` (atropisomer, axis not shown) [Example 14, 2-((2S,4S)-2-(aminomethyl)-5-chloro-2-phenyl-2,3-dihydrobenzofuran-4-yl)-3-fluoro-4-((R)-2-hydroxypropoxy)benzamide] the same measures were 6.75, 7.82, more than 10 µM, 190 nM and more than 10000 nM.
On the same counts, the results for `NC(=O)c1ccc(OC(F)F)c(F)c1-c1c(Cl)ccc2c1C[C@@](CNC1CCCCC1)(c1ccccc1)O2` (atropisomer, axis not shown) [Example 135, 2-((2S,4S)-5-Chloro-2-((cyclohexylamino)methyl)-2-phenyl-2,3-dihydrobenzofuran-4-yl)-4-(difluoromethoxy)-3-fluorobenzamide] are 6.61, 8.15, more than 10 µM, 627 nM and 8640 nM.
On the same counts, the results for `NC(=O)c1ccc(OCCO)c(F)c1-c1c(Cl)c(F)cc2c1C[C@@](CN[C@H]1C[C@H](CO)C1)(c1ccccc1)O2` (atropisomer, axis not shown) [Example 64a, 2-((2S,4S)-5-chloro-6-fluoro-2-((((trans)-3-(hydroxymethyl)cyclobutyl)amino)methyl)-2-phenyl-2,3-dihydrobenzofuran-4-yl)-3-fluoro-4-(2-hydroxyethoxy)benzamide] are 7.82, 8.70, more than 10 µM, 36 nM and more than 10000 nM.
With `COc1ncc(C(N)=O)c(-c2c(Cl)c(F)cc3c2C[C@@](CN)(c2ccccc2)O3)c1F` (atropisomer, axis not shown) [Example 42, 4-((2S,4S)-2-(aminomethyl)-5-chloro-6-fluoro-2-phenyl-2,3-dihydrobenzofuran-4-yl)-5-fluoro-6-methoxynicotinamide], the pIC50 in assay [1] (Homo sapiens, NCI-H2052, 24 h) is 6.41; in assay [5] it was 8.22. In addition, the IC50 in assay [2] is more than 10 µM. Further, the GI50 in assay [3] (Homo sapiens, NCI-H2052, 72 h) worked out at 493 nM; in assay [4] (Homo sapiens), 9400 nM.
On the same counts, the results for `CNC(=O)c1ccc(OC[C@H](C)O)c(F)c1-c1c(Cl)c(F)cc2c1C[C@](c1ccccc1)([C@@H]1CCCN1)N2` (atropisomer, axis not shown) [Example 172, 2-((2S,4S)-5-Chloro-6-fluoro-2-phenyl-2-((S)-pyrrolidin-2-yl)indolin-4-yl)-3-fluoro-4-((S)-2-hydroxypropoxy)-N-methylbenzamide] are 6.84, 7.82, more than 20 µM, 104 nM and more than 20000 nM.
